The values below come from patent US8211646B1, “Methods of treating ovarian cancer by modulating SnoN” (University of South Florida, priority 2008, dated 2012).

For assay [1], the system named is immortalized and cancer ovarian cell lines. Description: Boyden chamber migration assay. It counts as cell-based. Conditions: 5 μM As2O3 6 hours, then 18 hours in Boyden chamber. How it is done:
FIGS. 25(A) through (C) are graphs showing arsenic trioxide induces cell death and inhibits migratory potential. HEY cells were treated for 6 hours with 5 μM As2O3 and seeded at 25,000 cells into Boyden chamber inserts for 18 hours. Cells were stained with crystal violet and counted.
TAg/hTert immortalized normal ovarian epithelial cells (TIOSE: T29 and T80) and ovarian cancer cells (OVCAR8, OVCA429, SKOV3, and HEY) were transfected with siRNA were counted 24 h post-transfection and 5000 cells were plated in each well of a 96-well plate maintained in 10% FBS. At various days, cells were fixed and stained with crystal violet solution, dissolved in Sorenson's buffer, and absorbance measured at 570 nm. To assess migration, cells transfected with siRNA were counted 24 h post-transfection and seeded into Boyden chamber inserts in serum-free media. FBS in the lower chamber media (RPMI 1640) was used as a chemoattractant for 24 h. The cells that migrated onto the lower membrane were stained with crystal violet, photographed, and counted.

For assay [2], the system named is glutathione (GSH). The experiment in a line: GSH-Glo glutathione assay. It counts as cell-based. Conditions: T80, HEY, SKOV3; 18 hours. As to the method:
Glutathione (GSH) was measured using the GSH Glo kit (Promega). Briefly, T80, HEY, and SKOV3 ovarian cells were plated at 5000 cells/well in opaque white 96 well plates. Following overnight attachment, cells were treated with As2O3 for 18 hours. Following cell treatments, the media was discarded and fresh PBS was added for washout followed by the addition of 100 μl of GSH-Glo reagent. Following a 2 minute shake, the cells were incubated at room temperature for 30 minutes followed by the addition of reconstituted luciferase detection reagent. The cells were incubated for a further 15 minutes at room temperature and the plate was read on a Biotek luminescence plate reader. All measurements were performed in triplicate.

With Arsenic trioxide [As2O3], the “reduction of migratory potential” value in assay [1] was “more than fifty percent”. In addition, the GSH levels result in assay [2] is reported as “markedly reduced”.
